Species: Rattus norvegicus
Test: Open TG-GATES - Regimen: Single
Format: toxicity, organism-based, Sprague-Dawley
Design: regimen Single, gender Male, age 6 weeks
Details: in vivo, po, 300 mg/kg, route gavage, dose level High; for APTT / Bas / Eos / Fbg / Hb / Ht / Lym / MCH / MCV / Mono / Neu / PT / Plat / RBC / Ret / WBC: tissue Blood; for KIDNEY_L / KIDNEY_R / KIDNEY_TOTAL: tissue Kidney; for LIVER: tissue Liver; for ALP / ALT / AST / BUN / CRE / Ca / Cl / DBIL / GLC / IP / K / LDH / Na / PL / RALB / TBIL / TG / TP / gamma-GTP: tissue Plasma

Compound: NC(=O)N1c2ccccc2C=Cc2ccccc21 [CARBAMAZEPINE]
- TERMINAL_BW (3 h): 216.2 g
- APTT (3 h): 20.3 s
- Bas (3 h): 0%
- Eos (3 h): 1%
- Fbg (3 h): 202 mg/dL
- Hb (3 h): 13 g/dL
- Ht (3 h): 38.4%
- Lym (3 h): 80%
- MCH (3 h): 21.6 pg
- MCV (3 h): 63.7 fL
- Mono (3 h): 2.2%
- Neu (3 h): 15.8%
- PT (3 h): 12.5 s
- Plat (3 h): 116.4 x10_4/uL
- RBC (3 h): 602.6 x10_4/ul
- Ret (3 h): 7%
- WBC (3 h): 87.3 x10_2/uL
- KIDNEY_L (3 h): 1 g
- KIDNEY_R (3 h): 1 g
- KIDNEY_TOTAL (3 h): 2 g
- LIVER (3 h): 9.7 g
- ALP (3 h): 789.4 IU/L
- ALT (3 h): 34.4 IU/L
- AST (3 h): 65 IU/L
- BUN (3 h): 10.2 mg/dL
- CRE (3 h): 0.4 mg/dL
- Ca (3 h): 10.3 mg/dL
- Cl (3 h): 101.8 meq/L
- DBIL (3 h): 0.082 mg/dL
- GLC (3 h): 194.8 mg/dL
- IP (3 h): 10 mg/dL
- K (3 h): 3.8 meq/L
- LDH (3 h): 199.6 IU/L
- Na (3 h): 140.2 meq/L
- PL (3 h): 150.8 mg/dL
- RALB (3 h): 3.4 g/dL
- TBIL (3 h): 0.1 mg/dL
- TG (3 h): 63 mg/dL
- TP (3 h): 5.4 g/dL
- gamma-GTP (3 h): 1 IU/L
- TERMINAL_BW (6 h): 212.3 g
- APTT (6 h): 20 s
- Bas (6 h): 0%
- Eos (6 h): 1%
- Fbg (6 h): 205.6 mg/dL
- Hb (6 h): 13.2 g/dL
- Ht (6 h): 38.6%
- Lym (6 h): 80.6%
- MCH (6 h): 21.2 pg
- MCV (6 h): 61.9 fL
- Mono (6 h): 3%
- Neu (6 h): 14%
- PT (6 h): 12.8 s
- Plat (6 h): 123.1 x10_4/uL
- RBC (6 h): 623 x10_4/ul
- Ret (6 h): 6.2%
- WBC (6 h): 86.4 x10_2/uL
- KIDNEY_L (6 h): 1 g
- KIDNEY_R (6 h): 1 g
- KIDNEY_TOTAL (6 h): 2 g
- LIVER (6 h): 9.2 g
- ALP (6 h): 891 IU/L
- ALT (6 h): 35.4 IU/L
- AST (6 h): 68 IU/L
- BUN (6 h): 8.6 mg/dL
- CRE (6 h): 0.4 mg/dL
- Ca (6 h): 10.4 mg/dL
- Cl (6 h): 102.8 meq/L
- DBIL (6 h): 0.074 mg/dL
- GLC (6 h): 188.2 mg/dL
- IP (6 h): 9.9 mg/dL
- K (6 h): 3.7 meq/L
- LDH (6 h): 203.4 IU/L
- Na (6 h): 140.8 meq/L
- PL (6 h): 146 mg/dL
- RALB (6 h): 3.4 g/dL
- TBIL (6 h): 0.1 mg/dL
- TG (6 h): 41.8 mg/dL
- TP (6 h): 5.6 g/dL
- gamma-GTP (6 h): 0.6 IU/L
- TERMINAL_BW (9 h): 212.2 g
- APTT (9 h): 20 s
- Bas (9 h): 0%
- Eos (9 h): 1%
- Fbg (9 h): 221.6 mg/dL
- Hb (9 h): 13.2 g/dL
- Ht (9 h): 38.3%
- Lym (9 h): 80.6%
- MCH (9 h): 20.7 pg
- MCV (9 h): 60.2 fL
- Mono (9 h): 2.2%
- Neu (9 h): 15.2%
- PT (9 h): 13.3 s
- Plat (9 h): 123.1 x10_4/uL
- RBC (9 h): 637 x10_4/ul
- Ret (9 h): 5.7%
- WBC (9 h): 77.3 x10_2/uL
- KIDNEY_L (9 h): 1 g
- KIDNEY_R (9 h): 1 g
- KIDNEY_TOTAL (9 h): 1.9 g
- LIVER (9 h): 8.5 g
- ALP (9 h): 816 IU/L
- ALT (9 h): 26.6 IU/L
- AST (9 h): 60.4 IU/L
- BUN (9 h): 9.4 mg/dL
- CRE (9 h): 0.3 mg/dL
- Ca (9 h): 10.3 mg/dL
- Cl (9 h): 101 meq/L
- DBIL (9 h): 0.068 mg/dL
- GLC (9 h): 195.8 mg/dL
- IP (9 h): 9.9 mg/dL
- K (9 h): 3.6 meq/L
- LDH (9 h): 200.6 IU/L
- Na (9 h): 140.6 meq/L
- PL (9 h): 139 mg/dL
- RALB (9 h): 3.4 g/dL
- TBIL (9 h): 0.1 mg/dL
- TG (9 h): 47.2 mg/dL
- TP (9 h): 5.6 g/dL
- gamma-GTP (9 h): 0.6 IU/L
- TERMINAL_BW (24 h): 214.8 g
- APTT (24 h): 20.8 s
- Bas (24 h): 0%
- Eos (24 h): 0.8%
- Fbg (24 h): 200.6 mg/dL
- Hb (24 h): 13.7 g/dL
- Ht (24 h): 40.4%
- Lym (24 h): 86%
- MCH (24 h): 21.7 pg
- MCV (24 h): 63.9 fL
- Mono (24 h): 2%
- Neu (24 h): 10.6%
- PT (24 h): 13 s
- Plat (24 h): 127.9 x10_4/uL
- RBC (24 h): 632.8 x10_4/ul
- Ret (24 h): 6%
- WBC (24 h): 91 x10_2/uL
- KIDNEY_L (24 h): 1 g
- KIDNEY_R (24 h): 1 g
- KIDNEY_TOTAL (24 h): 2 g
- LIVER (24 h): 9.7 g
- ALP (24 h): 927.8 IU/L
- ALT (24 h): 34.6 IU/L
- AST (24 h): 65 IU/L
- BUN (24 h): 14.8 mg/dL
- CRE (24 h): 0.4 mg/dL
- Ca (24 h): 10.4 mg/dL
- Cl (24 h): 103.2 meq/L
- DBIL (24 h): 0.1 mg/dL
- GLC (24 h): 203.2 mg/dL
- IP (24 h): 7.9 mg/dL
- K (24 h): 3.6 meq/L
- LDH (24 h): 212.2 IU/L
- Na (24 h): 141 meq/L
- PL (24 h): 121.4 mg/dL
- RALB (24 h): 3.4 g/dL
- TBIL (24 h): 0.2 mg/dL
- TG (24 h): 88 mg/dL
- TP (24 h): 5.6 g/dL
- gamma-GTP (24 h): 0.8 IU/L

Source: ChEMBL document CHEMBL3885861, “Open TG-GATES”
